The values below come from patent publication US7462614B2, “Imidazotriazine compounds” (Smithkline Beecham Corporation, priority 2003, dated 2008).

The test deals with T1, truncated human PLK1 (kinase domain) (Homo sapiens, UniProt P53350).
T1 construct: made in house; host or cells: baculovirus-infected T. ni insect cells
As to the kind of experiment: Assay for Inhibition of PLK1 (33P SPA enzyme activity). The test is classed as biochemical. Conditions: 1 μM ATP, 2 nM enzyme; read-out: Ave pIC50 PLK Enzyme Inhibition (converted). The protocol:
I. Assay for Inhibition of PLK1
A. Preparation of 6× N-Terminal His-Tagged PLK Kinase Domain
All procedures are performed at 4° C. Cells are lysed in 25 mM HEPES, 200 mM NaCl, 25 mM imidazole; pH 8.0. The homogenate is centrifuged at 14K rpm in a SLA-1500 rotor for 40 min and the supernatant filtered through a 1.2 micron filter. The supernatant is loaded onto a Nickel chelating Sepharose (Amersham Pharmacia) column and washed with 25 mM HEPES, 500 mM NaCl, 25 mM imidazole; pH 8.0. […] PLK is concentrated using a 10 kDa molecular weight cutoff membrane and then loaded onto a Superdex 75 gel filtration (Amersham BioSciences) column equilibrated in 25 mM HEPES, 1 mM DTT, 500 mM NaCl; pH 8.0. Fractions containing PLK are determined by SDS-PAGE. PLK is pooled, aliquoted and stored at […]. Samples are quality controlled using mass spectrometry.
B. Enzyme Activity±Inhibitors is Determined As Follows:
Compounds are added to the plate (1 μL in 100% DMSO).
Immediately upon addition of enzyme and thorough mixing, add 20 uL per well into 384-well white plates containing compounds and controls. […] The enzymatic reaction is stopped with 50 μl of bead mix (50 mM EDTA, 2 mg/ml Streptavidin-coated SPA beads in Standard Dulbecco's PBS (without Mg^2+and Ca^2+), and 60 μM ATP).

SMILES strings stand for the structures. A value given as a limit tells only on which side of the number the result lay.

T1 sequence (P53350 21-346): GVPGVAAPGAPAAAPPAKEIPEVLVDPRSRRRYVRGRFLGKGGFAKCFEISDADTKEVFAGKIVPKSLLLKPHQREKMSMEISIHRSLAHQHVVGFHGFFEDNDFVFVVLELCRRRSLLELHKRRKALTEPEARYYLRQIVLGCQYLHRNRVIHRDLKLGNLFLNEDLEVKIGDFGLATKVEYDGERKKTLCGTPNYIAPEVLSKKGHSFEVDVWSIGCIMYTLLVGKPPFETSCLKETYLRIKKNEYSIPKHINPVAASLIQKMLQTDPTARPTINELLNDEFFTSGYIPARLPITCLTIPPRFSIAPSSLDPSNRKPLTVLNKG

As to `COc1cc(Nc2ncc3c(C)nc(-c4ccccc4[N+](=O)[O-])n3n2)cc(OC)c1OC` [Example 2, 5-Methyl-7-(2-nitrophenyl)-N-(3,4,5-trimethoxyvhenyl)imidazo[5,1-f][1,2,4]triazin-2-amine], the IC50 is 0.1 to 10 µM.

Regarding `COc1cc(Nc2ncc3c(C)nc(-c4ccccc4Br)n3n2)cc(OC)c1OC` [Example 3], the IC50 was 0.1 to 10 µM.

`COc1cc(Nc2ncc3c(C)nc(-c4ccc(F)cc4)n3n2)cc(OC)c1OC` [Example 4, 7-(4-Fluorophenyl)-5-methyl-N-(3,4,5-trimethoxyphenyl)imidazo-[5,1-f][1,2,4]triazin-2-amine]: the IC50 was below 0.1 µM.

As to `COc1cc(Nc2ncc3c(C)nc(-c4ccccc4NC(=O)C(C)(C)C)n3n2)cc(OC)c1OC` [Example 6, 2,2-Dimethyl-N-(2-{5-methyl-2-[(3,4,5-trimethoxyphenyl)amino]-imidazo[5,1-f][1,2,4]triazin-7-yl}phenyl)propanamide], the IC50 is above 10 µM.

Turning to `COc1cc(Nc2ncc3c(C)nc(-c4ccccc4NC(=O)C(F)(F)F)n3n2)cc(OC)c1OC` [Example 7, 2,2,2-Trifluoro-N-(2-{5-methyl-2-[(3,4,5-trimethoxyphenyl)amino]-imidazo[5,1-f][1,2,4]triazin-7-yl}phenyl)acetamide], the IC50 is 0.1 to 10 µM.

Regarding `COc1cc(Nc2ncc3c(C)nc(-c4sccc4Br)n3n2)cc(OC)c1OC` [Example 10, 7-(3-Bromothien-2-yl)-5-methyl-N-(3,4,5-trimethoxyphenyl)-imidazo[1,5-f][1,2,4]triazin-2-amine], the IC50 is 0.1 to 10 µM.

For the compound `COc1cc(Nc2ncc3c(C)nc(-c4cncc(Br)c4)n3n2)cc(OC)c1OC` [Example 11, 7-(5-Bromopyridin-3-yl)-5-methyl-N-(3,4,5-trimethoxyphenyl)-imidazo[5.1-f][1,2,4]triazin-2-amine], the IC50 is 0.1 to 10 µM.

On to `COC(=O)c1cccc(-c2nc(C)c3cnc(Nc4cc(OC)c(OC)c(OC)c4)nn23)c1` [Example 12, Methyl 3-{5-methyl-2-[(3,4,5-trimethoxyphenyl)amino]imidazo[5,1-f][1,2,4]triazin-7-yl}benzoate], for which the IC50 is 0.1 to 10 µM.

Take `COc1cc(Nc2ncc3c(C)nc(-c4ccc(Br)s4)n3n2)cc(OC)c1OC` [Example 13, 7-(5-Bromothien-2-yl)-5-methyl-N-(3,4,5-trimethoxyphenyl)imidazo-[5,1-f][1,2,4]triazin-2-amine]: the IC50 is 0.1 to 10 µM.

As to `CCS(=O)(=O)c1ccc(OC)c(Nc2ncc3c(C)nc(-c4cccc(Br)c4)n3n2)c1` [Example 14, 7-(3-Bromophenyl)-N-[5-(ethylsulfonyl)-2-methoxyphenyl]-5-methylimidazo[5,1-f][1,2,4]triazin-2-amine], the IC50 is 0.1 to 10 µM.

As for `Cc1nc(-c2cccc(Br)c2)n2nc(Nc3ccc(N4CCOCC4)c(Cl)c3)ncc12` [Example 15, 7-(3-Bromophenyl)-N-(3-chloro-4-morpholin-4-ylphenyl)-5-methylimidazo[5,1-f][1,2,4]triazin-2-amine], the IC50 was 0.1 to 10 µM.

`COc1cc(Nc2ncc3c(C)nc(-c4cccc(/C=C/C(N)=O)c4)n3n2)cc(OC)c1OC` [Example 17, (2E)-3-(3-{5-Methyl-2-[(3,4,5-trimethoxyphenyl)amino]imidazo[5,1-f][1 2,4]triazin-7-yl}phenyl)prop-2-enamide]: the IC50 was below 0.1 µM.

For the compound `Cc1nc(-c2ccccc2)n2nc(Nc3ccc([N+](=O)[O-])cc3)ncc12` [Example 18, 5-Methyl-N-(4-nitrophenyl)-7-phenylimidazo[5,1-f][1,2,4]triazin-2-amine], the IC50 was 0.1 to 10 µM.

`Cc1nc(-c2ccccc2)n2nc(Nc3ccc(S(N)(=O)=O)cc3)ncc12` [Example 20, 4-[(5-Methyl-7-phenylimidazo[5,1-f][1,2,4]triazin-2-yl)amino]benzenesulfonamide]: the IC50 is 0.1 to 10 µM.

With `COc1ccccc1-c1nc(C)c2cnc(Nc3cc(OC)c(OC)c(OC)c3)nn12` [Example 21, 7-(2-Methoxyphenyl)-5-methyl-N-(3,4,5-trimethoxyphenyl)-imidazo[5,1-f][1,2,4]triazin-2-amine], the IC50 is 0.1 to 10 µM.

As for `Cc1nc(-c2ccccc2)n2nc(Nc3cccc(C(F)(F)F)c3)ncc12` [Example 26, 5-Methyl-7-phenyl-N-[3-(trifluoromethyl)phenyl]imidazo[5,1-f][1,2,4]triazin-2-amine], the IC50 was 0.1 to 10 µM.

In the case of `COc1cc(Nc2ncc3c(C)nc(-c4ccc5c(c4)OCO5)n3n2)cc(OC)c1OC` [Example 28, 7-(1,3-Benzodioxol-5-yl)-5-methyl-N-(3,4,5-trimethoxyphenyl)-imidazo[5,1-f][1,2,4]triazin-2-amine], the IC50 was 0.1 to 10 µM.

In the case of `COC(=O)c1ccc(-c2nc(C)c3cnc(Nc4cc(OC)c(OC)c(OC)c4)nn23)cc1` [Example 29, Methyl 4-{5-methyl-2-[(3,4,5-trimethoxyphenyl)amino]imidazo-[5,1-f][1,2,4]triazin-7-yl}benzoate], the IC50 is 0.1 to 10 µM.

For `COc1cc(Nc2ncc3c(C)nc(-c4cccc(N)c4)n3n2)cc(OC)c1OC` [Example 31, 7-(3-Aminophenyl)-5-methyl-N-(3,4,5-trimethoxyphenyl)imidazo-[5,1-f][1,2,4]triazin-2-amine], the IC50 is below 0.1 µM.

On to `COc1cc(Nc2ncc3c(C)nc(-c4cc5ccccc5[nH]4)n3n2)cc(OC)c1OC` [Example 32, 7-(1H-Indol-2-yl)-5-methyl-N-(3,4,5-trimethoxyphenyl)imidazo-[5,1-f][1,2,4]triazin-2-amine], for which the IC50 is 0.1 to 10 µM.

Turning to `COc1cc(Nc2ncc3c(C)nc(-c4ccc([N+](=O)[O-])[nH]4)n3n2)cc(OC)c1OC` [Example 33, 5-Methyl-7-(5-nitro-1H-pyrrol-2-yl)-N-(3,4,5-trimethoxyphenyl)-imidazo[5,1-f][1,2,4]triazin-2-amine], the IC50 was 0.1 to 10 µM.

For the compound `COc1cc(Nc2ncc3c(C)nc(-c4cccn4C)n3n2)cc(OC)c1OC` [Example 34, 5-Methyl-7-(1-methyl-1H-pyrrol-2-yl)-N-(3,4,5-trimethoxyphenyl)-imidazo[5,1-f][1,2,4]triazin-2-amine], the IC50 is 0.1 to 10 µM.

`COc1cc(Nc2ncc3c(C)nc(-c4cn(C)c5ccccc45)n3n2)cc(OC)c1OC` [Example 35, 5-Methyl-7-(1-methyl-1H-indol-3-yl)-N-(3,4,5-trimethoxyphenyl)-imidazo[5,1-f][1,2,4]triazin-2-amine]: the IC50 was 0.1 to 10 µM.

With `COc1cc(Nc2ncc3c(C)nc(-c4ccoc4)n3n2)cc(OC)c1OC` [Example 36, 7-(3-Furyl)-5-methyl-N-(3,4,5-trimethoxyphenyl)imidazo[5,1-f][1,2,4]triazin-2-amine], the IC50 was 0.1 to 10 µM.

As for `COc1cc(Nc2ncc3c(C)nc(-c4ccc5[nH]ccc5c4)n3n2)cc(OC)c1OC` [Example 37, 7-(1H-Indol-5-yl)-5-methyl-N-(3,4,5-trimethoxyphenyl)imidazo-[5,1-f][1,2,4]triazin-2-amine], the IC50 is 0.1 to 10 µM.

Regarding `COc1cc(Nc2ncc3c(C)nc(-c4ccccc4Sc4ccccc4C#N)n3n2)cc(OC)c1OC` [Example 38, 2-[(2-{5-Methyl-2-[(3,4,5-trimethoxyphenyl)amino]imidazo[5,1-f][1,2,4]triazin-7-yl}phenyl)thio]benzonitrile], the IC50 was 0.1 to 10 µM.

For `COc1cc(Nc2ncc3c(C)nc(-c4ccccc4Nc4cccc(C(F)(F)F)c4)n3n2)cc(OC)c1OC` [Example 39, 5-Methyl-7-(2-{[3-(trifluoromethyl)phenyl]amino}phenyl)-N-(3,4,5-trimethoxyphenyl)imidazo[5,1-f][1,2,4]triazin-2-amine], the IC50 was above 10 µM.

On to `COc1cc(Nc2ncc3c(C)nc(-c4cccc5cccnc45)n3n2)cc(OC)c1OC` [Example 40, 5-Methyl-7-quinolin-8-yl-N-(3,4 5-trimethoxyphenyl)imidazo[5,1-f][1,2,4]triazin-2-amine], for which the IC50 is above 10 µM.

On to `Cc1nc(-c2cccc(C(F)(F)F)c2)n2nc(Nc3ccc(S(N)(=O)=O)cc3)ncc12` [Example 45, 4-({5-Methyl-7-[3-(trifluoromethyl)phenyl]imidazo[5,1-f][1,2,4]triazin-2-yl}amino)benzenesulfonamide], for which the IC50 was 0.1 to 10 µM.

Regarding `Cc1nc(-c2cccc(C(F)(F)F)c2)n2nc(Nc3ccc(O)cc3)ncc12` [Example 49, 4-({5-Methyl-7-[3-(trifluoromethyl)phenyl]imidazo[5,1-f][1,2,4]triazin-2-yl}amino)phenol], the IC50 was below 0.1 µM.

On to `Cc1nc(-c2cccc(C(F)(F)F)c2)n2nc(Nc3ccc(OCCN4CCCC4)cc3)ncc12` [Example 50, 5-Methyl-N-[4-(2-pyrrolidin-1-ylethoxy)phenyl]-7-[3-(trifluoromethyl)phenyl]imidazo[5,1-f][1,2,4]triazin-2-amine], for which the IC50 was 0.1 to 10 µM.

Regarding `COc1ccc(F)cc1Nc1ncc2c(C)nc(-c3cccc(C(F)(F)F)c3)n2n1` [Example 51, N-(5-Fluoro-2-methoxyphenyl)-5-methyl-7-[3-(trifluoromethyl)phenyl]-imidazo[5,1-f][1,2,4]triazin-2-amine], the IC50 was 0.1 to 10 µM.
